Source: patent US8389523B2, “Substituted quinoxaline and an agrochemical composition thereof” (Kumiai Chemical Industry Co., Ltd., priority 2007, dated 2013)

Columns and labels:
Type in all cases: in vivo
Parameters in all cases: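 grade 0 to 5 of growth suppression where 5 is 90% or more and 0 below 10%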
Amaranthus viridis L. [1] = test: Herbicidal effects in upland field foliar treatment (Test Example 3); conditions: criteria of Table 138; for herbicidal effects on Amaranthus viridis L.: 1000 g of the active ingredient per hectare, 14th day after the treatment, wettable powder; for herbicidal effect (index) on Amaranthus viridis L.: 1000 g active ingredient per hectare, 14th day after treatment
Method: (§1) Test Example 3 Test on Herbicidal Effects in Upland Field Foliar Treatment A 80-cm^2 plastic pot was filled with upland field soil. Seeds of Echinochloa crus-galli (L.) P. Beauv. var. crus-galli, Abutilon theophrasti medicus and Amaranthus viridis L. were sowed, and the plants were grown for two weeks in a greenhouse. A wettable powder formulation prepared according to Preparation Example 1 was diluted with water, and was sprayed with a small sprayer to perform foliar application over the entirety of plants from the upper side, in an amount equivalent to 1000 liters per hectare, such that 1000 g of the active ingredient per hectare was applied. Thereafter, the plants were grown in a greenhouse, and on the 14th day after the treatment, the herbicidal effects were investigated according to the criteria described in the Table 138 shown above.

[2] = system: Echinochloa crus-galli (L.) P. Beauv. var. crus-galli; test: as above; conditions: criteria of Table 138; for herbicidal effects on Echinochloa crus-galli (L.) P. Beauv. var. crus-galli: 1000 g of the active ingredient per hectare, 14th day after the treatment, wettable powder; for herbicidal effect (index) on Echinochloa crus-galli (L.) P. Beauv. var. crus-galli: 1000 g active ingredient per hectare, 14th day after treatment
Method: as §1

[3] = system: Abutilon theophrasti medicus; test: as above; conditions: criteria of Table 138; for herbicidal effects on Abutilon theophrasti medicus: 1000 g of the active ingredient per hectare, 14th day after the treatment, wettable powder; for herbicidal effect (index) on Abutilon theophrasti medicus: 1000 g active ingredient per hectare, 14th day after treatment
Method: as §1

Amaranthus viridis L. [4] = test: Herbicidal effects in upland field soil treatment (Test Example 2); conditions: 1000 g active ingredient per hectare, 21st day after treatment, criteria of Table 138
Procedure, shortened: (§2)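 Herbicidal effect was rated visually against set criteria on the 21st day after a pre-emergence soil-surface spray of diluted wettable powder delivering 1000 g active ingredient per hectare (1000 L/ha). Seeds had been sown and covered in upland field soil; plants grew in a greenhouse.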

[5] = system: Abutilon theophrasti medicus; test: as above; conditions: 1000 g active ingredient per hectare, 21st day after treatment, criteria of Table 138
Procedure, shortened: as §2

[6] = system: Scirpus juncoides Roxb. var. ohwianus. T. Koyama; test: Herbicidal effects in paddy field soil treatment (Test Example 1); conditions: paddy field soil treatment; 1000 g of the active ingredient per hectare; wettable powder added dropwise on water surface; 21st day after treatment
Procedure, shortened: (§3)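 Scoring of herbicidal effect took place 21 days after treatment, using a rating scale, on plants grown in a greenhouse. The test compound, formulated as a wettable powder and diluted with water, had been applied dropwise to the flood water at 1000 g active ingredient per hectare, one day after sowing into puddled paddy soil held under 3 cm of water.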

[7] = system: Echinochloa oryzicola Vasing; test: as above; conditions: paddy field soil treatment; 1000 g of the active ingredient per hectare; wettable powder added dropwise on water surface; 21st day after treatment
Procedure, shortened: as §3

[8] = system: Monochoria vaginalis (Burm. f.) Presl var. plantaginea (Roxb.) Solms-Laub.; test: as above; conditions: paddy field soil treatment; 1000 g of the active ingredient per hectare; wettable powder added dropwise on water surface; 21st day after treatment
Procedure, shortened: as §3

| Structure (SMILES) | herbicidal effects on Amaranthus viridis L. (Amaranthus viridis L. [1]) | herbicidal effects on Echinochloa crus-galli (L.) P. Beauv. var. crus-galli [2] | herbicidal effects on Abutilon theophrasti medicus [3] | herbicidal effect (index) on Amaranthus viridis L. (Amaranthus viridis L. [4]) | herbicidal effect (index) on Abutilon theophrasti medicus [5] | Herbicidal effects index, Scirpus juncoides Roxb. var. ohwianus. T. Koyama [6] | Herbicidal effects index, Echinochloa oryzicola Vasing [7] | Herbicidal effects index, Monochoria vaginalis (Burm. f.) Presl var. plantaginea (Roxb.) Solms-Laub. [8] | herbicidal effect (index) on Amaranthus viridis L. (Amaranthus viridis L. [1]) | herbicidal effect (index) on Echinochloa crus-galli (L.) P. Beauv. var. crus-galli [2] | herbicidal effect (index) on Abutilon theophrasti medicus [3] |
| --- | --- | --- | --- | --- | --- | --- | --- | --- | --- | --- | --- |
| O=C1CCCC(O)=C1C(=O)c1nc2cccnc2n(-c2ccccc2)c1=O [IV-1, 2-(2-hydroxy-6-oxo-1-cyclohexenecarbonyl)-4-phenyl-pyrido[2,3-b]pyrazin-3(4H)-one] | 5 | 5 | 5 | 5 | 5 | 5 | 5 | 5 |  |  |  |
| CCSCn1c(=O)c(C(=O)C2=C(O)CCCC2=O)nc2ccccc21 [Compound I-72] |  |  |  | 5 | 5 | 5 | 5 | 5 | 5 | 5 | 5 |
| COc1ccc(-n2c(=O)c(C(=O)C3=C(O)CCCC3=O)nc3cccc(F)c32)cc1 [II-189] | 5 | 5 | 5 | 5 | 5 | 5 | 5 | 5 |  |  |  |
| O=C1CCCC(O)=C1C(=O)c1nc2ccccc2n(-c2ccc3c(c2)CCO3)c1=O [I-201] |  |  |  | 5 | 4 | 5 | 5 | 5 | 5 | 5 | 4 |
| O=C1CCCC(O)=C1C(=O)c1nc2ccccc2n(-c2ccc3c(c2)CCCC3)c1=O [II-223] | 5 | 5 | 5 | 5 | 4 | 5 | 5 | 5 |  |  |  |
| O=C1CCCC(O)=C1C(=O)c1nc2ccc(F)cc2n(-c2ccc3c(c2)OCO3)c1=O [II-225] | 5 | 5 | 5 | 5 | 5 | 5 | 5 | 5 |  |  |  |
| O=C1CCCC(O)=C1C(=O)c1nc2ccccc2n(-c2ccc(F)cc2)c1=O [II-8] |  |  |  | 5 | 5 | 5 | 5 | 5 | 5 | 5 | 5 |
| CSCn1c(=O)c(C(=O)C2=C(O)CCCC2=O)nc2ccccc21 [I-70] |  |  |  | 5 | 5 | 5 | 5 | 5 | 5 | 5 | 5 |
| C=CCn1c(=O)c(C(=O)C2=C(O)CCCC2=O)nc2cccnc21 [III-30] | 5 | 4 | 5 | 5 | 5 | 5 | 4 | 5 |  |  |  |
| CC1COc2cc(-n3c(=O)c(C(=O)C4=C(O)CCCC4=O)nc4ccccc43)ccc2O1 (stereo not shown) [II-231] | 5 | 5 | 5 | 5 | 4 | 5 | 5 | 5 |  |  |  |
| CCOC(=O)Cn1c(=O)c(C(=O)C2=C(O)CCCC2=O)nc2cccnc21 [III-96] | 5 | 5 | 5 | 5 | 5 | 5 | 5 | 5 |  |  |  |
| O=C1CCCC(O)=C1C(=O)c1nc2cccnc2n(CC(F)(F)F)c1=O [III-40] | 5 | 4 | 5 | 5 | 5 | 5 | 5 | 5 |  |  |  |
| O=C1CCCC(O)=C1C(=O)c1nc2cc(C(F)(F)F)ccc2n(-c2ccccc2)c1=O [II-249] | 5 | 5 | 5 | 5 | 5 | 5 | 5 | 5 |  |  |  |
| CCS(=O)(=O)Cn1c(=O)c(C(=O)C2=C(O)CCCC2=O)nc2ccccc21 [Compound I-82] |  |  |  | 5 | 5 | 5 | 5 | 5 | 5 | 4 | 5 |
| O=C1CCCC(O)=C1C(=O)c1nc2ccccc2n(-c2cccc(OC(F)(F)F)c2)c1=O [II-101] | 5 | 5 | 5 | 5 | 5 | 5 | 5 | 5 |  |  |  |
| CCc1cccc(-n2c(=O)c(C(=O)C3=C(O)CCCC3=O)nc3cccnc32)c1 [IV-23] | 5 | 5 | 4 | 5 | 5 | 5 | 5 | 5 |  |  |  |
| O=C1CCCC(O)=C1C(=O)c1nc2ccc(F)cc2n(-c2ccc3c(c2)OCCO3)c1=O [II-242] | 5 | 5 | 4 | 5 | 4 | 5 | 5 | 5 |  |  |  |
